Here are results for 27 compounds from paper PMC4780864, “Family-wide Structural Analysis of Human Numb-Associated Protein Kinases” (Structure(London, England:1993), 2016).

Holding throughout (test): biochemical
The target in one assay is T1, BIKE (Homo sapiens, UniProt Q9NSY1).
T1 construct: gene BMP2K; catalytic domain-containing construct
Further details: Thermal shift assay (DSF, SYPRO Orange), 2 uM kinase domain, mean delta Tm of triplicates versus DMSO. The note with it: read-out: BIKE. On the procedure: (§1) All measurements were performed in triplicate and mean values were reported for all compounds (Table S1). […] However, NAKs are often omitted from selectivity panels, including commercial screens.

The next assay addresses T2, GAK (Homo sapiens, UniProt O14976).
T2 construct: catalytic domain-containing construct
T2 sequence (O14976 1-1311): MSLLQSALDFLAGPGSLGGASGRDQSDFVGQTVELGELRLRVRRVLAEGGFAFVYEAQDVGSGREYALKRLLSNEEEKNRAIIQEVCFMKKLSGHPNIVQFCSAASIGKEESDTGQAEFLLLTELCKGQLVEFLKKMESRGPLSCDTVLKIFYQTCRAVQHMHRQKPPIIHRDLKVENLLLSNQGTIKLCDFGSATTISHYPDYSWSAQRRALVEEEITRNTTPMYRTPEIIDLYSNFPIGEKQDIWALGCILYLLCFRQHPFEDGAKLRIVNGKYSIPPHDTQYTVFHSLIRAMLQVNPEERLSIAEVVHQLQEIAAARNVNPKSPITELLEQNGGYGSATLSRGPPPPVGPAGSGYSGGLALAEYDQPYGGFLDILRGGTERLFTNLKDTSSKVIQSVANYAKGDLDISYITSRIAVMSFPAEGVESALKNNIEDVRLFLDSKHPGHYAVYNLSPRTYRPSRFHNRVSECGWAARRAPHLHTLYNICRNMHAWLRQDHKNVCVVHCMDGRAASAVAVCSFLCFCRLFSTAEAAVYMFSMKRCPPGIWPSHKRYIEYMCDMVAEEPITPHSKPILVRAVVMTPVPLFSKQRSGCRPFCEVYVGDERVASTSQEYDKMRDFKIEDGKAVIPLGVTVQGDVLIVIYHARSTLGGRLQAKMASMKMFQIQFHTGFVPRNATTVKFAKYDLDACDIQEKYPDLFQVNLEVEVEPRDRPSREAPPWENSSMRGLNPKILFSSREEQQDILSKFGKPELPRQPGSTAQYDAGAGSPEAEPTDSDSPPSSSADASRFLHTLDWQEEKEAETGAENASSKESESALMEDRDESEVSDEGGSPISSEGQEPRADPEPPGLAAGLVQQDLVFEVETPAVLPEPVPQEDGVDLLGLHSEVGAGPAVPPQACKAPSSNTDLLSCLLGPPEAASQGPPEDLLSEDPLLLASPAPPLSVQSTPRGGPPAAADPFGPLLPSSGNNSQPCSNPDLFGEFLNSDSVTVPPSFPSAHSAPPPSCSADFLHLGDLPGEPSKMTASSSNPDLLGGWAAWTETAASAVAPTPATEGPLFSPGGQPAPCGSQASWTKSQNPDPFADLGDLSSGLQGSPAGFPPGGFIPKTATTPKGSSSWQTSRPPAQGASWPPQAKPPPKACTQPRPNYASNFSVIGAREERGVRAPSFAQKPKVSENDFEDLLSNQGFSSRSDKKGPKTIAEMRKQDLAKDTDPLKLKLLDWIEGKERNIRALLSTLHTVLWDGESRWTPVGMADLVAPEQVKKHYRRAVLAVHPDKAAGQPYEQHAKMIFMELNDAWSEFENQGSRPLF
Further details: Thermal shift assay (DSF, SYPRO Orange), 2 uM kinase domain, mean delta Tm of triplicates versus DMSO. Particulars: read-out: GAK. Here is the method:
as §1

The target of a further assay is T3, MPSK1 (Homo sapiens, UniProt O75716).
T3 construct: gene STK16; catalytic domain-containing construct
Further details: Thermal shift assay (DSF, SYPRO Orange), 2 uM kinase domain, mean delta Tm of triplicates versus DMSO. The note with it: read-out: MPSK1. Here is the method:
as §1

Another assay has as its target AAK1 (Homo sapiens, UniProt Q2M2I8). The arrangement: kinase domain; Thermal shift assay (DSF, SYPRO Orange), 2 uM kinase domain, mean delta Tm of triplicates versus DMSO. The note with it: read-out: AAK1. On the procedure: as §1

Chain of AAK1 (Q2M2I8 27-365 limits assumed): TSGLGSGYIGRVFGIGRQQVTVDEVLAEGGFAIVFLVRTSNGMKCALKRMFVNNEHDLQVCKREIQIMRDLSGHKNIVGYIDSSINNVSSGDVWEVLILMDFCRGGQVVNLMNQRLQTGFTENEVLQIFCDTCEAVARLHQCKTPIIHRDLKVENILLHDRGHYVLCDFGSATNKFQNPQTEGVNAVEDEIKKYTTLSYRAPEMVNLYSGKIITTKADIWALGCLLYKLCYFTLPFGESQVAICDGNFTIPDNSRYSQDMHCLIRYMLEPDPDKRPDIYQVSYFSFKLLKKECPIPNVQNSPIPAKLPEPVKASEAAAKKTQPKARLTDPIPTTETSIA
T3 sequence (O75716 whole entry, the tested form may be a part): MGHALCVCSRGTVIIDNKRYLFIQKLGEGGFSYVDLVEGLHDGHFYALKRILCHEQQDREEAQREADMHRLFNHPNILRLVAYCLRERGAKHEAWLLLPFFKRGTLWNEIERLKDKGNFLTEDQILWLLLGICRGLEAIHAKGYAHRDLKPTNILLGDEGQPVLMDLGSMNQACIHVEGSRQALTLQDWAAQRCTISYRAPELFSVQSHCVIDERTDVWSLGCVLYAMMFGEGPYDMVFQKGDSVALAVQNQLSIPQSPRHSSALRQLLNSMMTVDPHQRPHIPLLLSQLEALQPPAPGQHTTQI
T1 sequence (Q9NSY1 whole entry, the tested form may be a part): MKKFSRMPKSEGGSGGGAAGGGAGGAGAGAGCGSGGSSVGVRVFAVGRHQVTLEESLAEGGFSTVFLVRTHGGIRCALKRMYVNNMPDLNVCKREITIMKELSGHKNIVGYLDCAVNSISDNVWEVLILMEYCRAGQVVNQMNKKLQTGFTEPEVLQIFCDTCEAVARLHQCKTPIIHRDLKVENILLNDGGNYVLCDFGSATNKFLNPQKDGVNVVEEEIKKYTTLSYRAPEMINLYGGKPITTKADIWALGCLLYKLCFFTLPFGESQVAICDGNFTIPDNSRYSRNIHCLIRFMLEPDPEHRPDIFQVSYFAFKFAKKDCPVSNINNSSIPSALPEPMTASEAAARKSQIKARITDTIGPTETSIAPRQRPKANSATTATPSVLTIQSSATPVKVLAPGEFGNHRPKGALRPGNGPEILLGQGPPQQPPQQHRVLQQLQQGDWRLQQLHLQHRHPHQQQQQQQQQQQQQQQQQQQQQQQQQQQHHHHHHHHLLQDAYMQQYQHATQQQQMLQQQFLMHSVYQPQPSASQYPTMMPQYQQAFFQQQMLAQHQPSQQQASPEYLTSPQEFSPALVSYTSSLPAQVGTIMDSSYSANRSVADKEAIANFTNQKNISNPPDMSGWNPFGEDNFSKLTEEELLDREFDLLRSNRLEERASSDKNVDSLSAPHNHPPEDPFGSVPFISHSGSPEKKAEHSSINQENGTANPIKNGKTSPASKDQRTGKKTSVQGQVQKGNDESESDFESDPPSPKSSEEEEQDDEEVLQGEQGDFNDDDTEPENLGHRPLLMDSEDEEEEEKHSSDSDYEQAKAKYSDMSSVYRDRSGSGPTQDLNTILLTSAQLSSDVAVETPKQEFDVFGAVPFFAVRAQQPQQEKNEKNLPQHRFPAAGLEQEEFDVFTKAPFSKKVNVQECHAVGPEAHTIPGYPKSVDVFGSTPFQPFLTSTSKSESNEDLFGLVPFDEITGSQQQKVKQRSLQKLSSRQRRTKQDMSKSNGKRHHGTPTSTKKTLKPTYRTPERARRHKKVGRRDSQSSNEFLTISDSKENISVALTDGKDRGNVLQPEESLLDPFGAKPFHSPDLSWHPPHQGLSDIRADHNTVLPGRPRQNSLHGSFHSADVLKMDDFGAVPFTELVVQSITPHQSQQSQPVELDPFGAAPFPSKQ

Consider `COc1cc(O)c2c(c1)/C=C/C[C@H](O)[C@H](O)C(=O)/C=C\C[C@H](C)OC2=O` [(5Z)-7-oxozeaenol, (3S,5Z,8S,9S,11E)-3,4,9,10-tetrahydro-8,9,16-trihydroxy-14-methoxy-3-methyl-1H-2-benzoxacyclotetradecin-1,7(8H)-dione], for which the ΔTm at 12.5 µM at BIKE turned out to be 14 °C; on GAK, 16.7 °C; at MPSK1, 1.09 °C; on AAK1, 11.4 °C.
The matching figures for `COc1cc(N2CCC(N3CCN(C)CC3)CC2)ccc1Nc1ncc(Cl)c(Nc2ccccc2P(C)(C)=O)n1` [AP26113]: 8.42 °C, 9.03 °C, 2.75 °C and 7.77 °C.
Taken in the same sequence, the figures for `COc1cc(N2CCC(N3CCN(C)CC3)CC2)ccc1Nc1ncnc(Nc2ccccc2S(=O)(=O)C(C)C)n1` [ASP3026] were 2.92 °C, 3.17 °C, 1.08 °C and 4.23 °C.
Take `O=C(Nc1c[nH]nc1-c1nc2ccc(CN3CCOCC3)cc2[nH]1)NC1CC1` [AT9283]: the ΔTm at 12.5 µM amounted to 15.6 °C on BIKE, 4.52 °C on GAK, 9.49 °C on MPSK1 and 12.1 °C on AAK1.
With `CC(C)Oc1cc(Nc2nc(N[C@@H](C)c3ccc(F)cn3)ncc2Cl)n[nH]1` [AZ23], the ΔTm at 12.5 µM is 3.37 °C on BIKE, 3.09 °C at GAK, 3.4 °C on MPSK1 and 1.65 °C at AAK1.
In the case of `COc1cc(OC2CCN(C)CC2)ccc1Nc1ncc2c(n1)n(C1CCCC1)c(=O)n2C` [AZ3146], the ΔTm at 12.5 µM at BIKE amounted to 6.16 °C; at GAK, 6.52 °C; at MPSK1 it was 4.12 °C; on AAK1 it was 5.37 °C.
As to `CCN(CCO)CCCOc1ccc2c(Nc3cc(CC(=O)Nc4cccc(F)c4)[nH]n3)ncnc2c1` [AZD1152-HQPA], the results for the ΔTm at 12.5 µM at BIKE, on GAK and on MPSK1 were 2.02 °C, -0.54 °C and 0.953 °C, respectively.
For `Cc1cc(Nc2nc(N[C@@H](C)c3ncc(F)cn3)ncc2Cl)[nH]n1` [AZD1480], the ΔTm at 12.5 µM on BIKE came to 6.41 °C; on GAK, 0.667 °C; at MPSK1 it was 5.04 °C; on AAK1 it was 4.44 °C.
Regarding `CNC(=O)c1cccc(-c2ccc3c(N4CCOC[C@@H]4C)nc(N4CCOC[C@@H]4C)nc3n2)c1` [AZD2014], the ΔTm at 12.5 µM is 0.477 °C at BIKE, -0.433 °C at GAK, 1.12 °C on MPSK1 and 0.373 °C on AAK1.
For the compound `COc1cc(CCc2cc(NC(=O)c3ccc(N4C[C@@H](C)N[C@@H](C)C4)cc3)n[nH]2)cc(OC)c1` [AZD4547], the ΔTm at 12.5 µM at BIKE is 5.45 °C; on GAK it was -0.197 °C; at MPSK1, 6.5 °C; at AAK1, 3.26 °C.
On to `COc1ccc(-c2ccc3c(N4CCOC[C@@H]4C)nc(N4CCOC[C@@H]4C)nc3n2)cc1CO` [AZD8055], for which the ΔTm at 12.5 µM is 0.12 °C on BIKE, -0.753 °C at GAK, 0.947 °C on MPSK1 and 0.04 °C on AAK1.
Regarding `Cc1cc(C(=O)NOCCO)c(Nc2ccc(I)cc2F)n(C)c1=O` [AZD8330], the ΔTm at 12.5 µM at BIKE is 0.227 °C; on GAK, -0.347 °C; at MPSK1 it was 0.463 °C; on AAK1, 0.187 °C.
Turning to `CN(C)C/C=C/C(=O)Nc1cc2c(Nc3ccc(F)c(Cl)c3)ncnc2cc1O[C@H]1CCOC1` [Afatinib], the ΔTm at 12.5 µM at BIKE turned out to be 1.95 °C; at GAK it was 3.38 °C; at MPSK1, 0.897 °C; on AAK1, 1.31 °C.
As for `CCc1cc2c(cc1N1CCC(N3CCOCC3)CC1)C(C)(C)c1[nH]c3cc(C#N)ccc3c1C2=O` [Alectinib], the ΔTm at 12.5 µM at BIKE came out at 0.673 °C; at GAK it was 6.7 °C; on MPSK1 it was 1.29 °C; at AAK1, 0.613 °C.
Consider `COc1cc(Nc2ncc3c(n2)-c2ccc(Cl)cc2C(c2c(F)cccc2OC)=NC3)ccc1C(=O)O` [Alisertib], for which the ΔTm at 12.5 µM is 0.78 °C on BIKE, -0.237 °C at GAK, 2.32 °C at MPSK1 and 0.29 °C on AAK1.
As for `CN1CC[C@H](c2c(O)cc(O)c3c(=O)cc(-c4ccccc4Cl)oc23)[C@H](O)C1` [Alvocidib], the ΔTm at 12.5 µM was determined as 1.46 °C at BIKE, 1.31 °C on GAK, 1.55 °C at MPSK1 and 1.86 °C on AAK1.
The matching figures for `S=C(NCc1ccc2c(c1)OCO2)N1CCN(c2ncnc3c2oc2ccccc23)CC1` [Amuvatinib]: 1.16 °C, 0.377 °C, 0.233 °C and 1.93 °C.
Consider `N#CC1(c2ccc(NC(=O)c3cccnc3NCc3ccncc3)cc2)CCCC1` [Apatinib], for which the ΔTm at 12.5 µM was 0.843 °C at BIKE, -0.113 °C on GAK, 0.55 °C on MPSK1 and 0.223 °C on AAK1.
As for `Cc1c(CN2CCN(C(=O)[C@H](C)O)CC2)sc2c(N3CCOCC3)nc(-c3cnc(N)nc3)nc12` [Apitolisib], the ΔTm at 12.5 µM on BIKE was 1.55 °C; at GAK, 0.847 °C; at MPSK1 it was 3.51 °C; at AAK1, 1.4 °C.
As to `CNC(=O)c1ccccc1Sc1ccc2c(/C=C/c3ccccn3)n[nH]c2c1` [Axitinib], the ΔTm at 12.5 µM at BIKE turned out to be 12.4 °C; at GAK it was 0.75 °C; on MPSK1 it was 3.09 °C; at AAK1, 6.85 °C.
`CC[C@@H]1C(=O)N(C)c2cnc(Nc3ccc(C(=O)NC4CCN(C)CC4)cc3OC)nc2N1C1CCCC1` [BI 2536]: the ΔTm at 12.5 µM at GAK turned out to be 4.13 °C.
For the compound `Cc1c(NC(=O)OC[C@@H]2COCCN2)cn2ncnc(Nc3ccc4c(cnn4Cc4cccc(F)c4)c3)c12` [BMS-599626], the ΔTm at 12.5 µM on BIKE came to 4.37 °C; at GAK it was 2.18 °C; at MPSK1, 0.293 °C; on AAK1 it was 2.62 °C.
Consider `C[C@@]1(C(=O)Nc2ccc(F)nc2)CCCN1c1nc(Nc2cc(C3CC3)n[nH]2)c2cccn2n1` [BMS-754807], for which the ΔTm at 12.5 µM was 2.91 °C at BIKE, -0.337 °C at GAK, 5.21 °C at MPSK1 and 0.483 °C on AAK1.
Take `CCn1c(C(=O)N(C2CC2)C2CC2)cc2c3c(ncn3C)c(Nc3cc(C)n(C)n3)nc21` [BMS-911543]: the ΔTm at 12.5 µM at BIKE was determined as 4.41 °C; at GAK, 1.58 °C; at MPSK1, 0.99 °C; on AAK1, 1.25 °C.
Take `O=C(Nc1cccc(Nc2ncc(Br)c(NCCc3cnc[nH]3)n2)c1)N1CCCC1` [BX-912]: the ΔTm at 12.5 µM came out at 15.9 °C at BIKE, 4.05 °C at GAK, 8.25 °C at MPSK1 and 9.95 °C on AAK1.
The matching figures for `Cc1nc(NC(=O)N2CCC[C@H]2C(N)=O)sc1-c1ccnc(C(C)(C)C(F)(F)F)c1` [BYL719]: 3.88 °C, 2.41 °C, 0.743 °C and 4.38 °C.
With `CS(=O)(=O)N1CCN(Cc2cc3nc(-c4cccc5[nH]ncc45)nc(N4CCOCC4)c3s2)CC1` [Pictilisib], the ΔTm at 12.5 µM stood at 4.67 °C on BIKE, 5.92 °C on MPSK1 and 2.3 °C on AAK1.
